This passage reports Emax, EC50 and efflux ratio results from ChEMBL document CHEMBL4304767 (ACS Med Chem Lett, 2019).

Structures are written as SMILES. Where only a bound is given, the exact number is not on record here.

The target of series [1] is T1, Muscarinic acetylcholine receptor M2 (Homo sapiens, UniProt P08172).
T1 sequence (P08172 whole entry): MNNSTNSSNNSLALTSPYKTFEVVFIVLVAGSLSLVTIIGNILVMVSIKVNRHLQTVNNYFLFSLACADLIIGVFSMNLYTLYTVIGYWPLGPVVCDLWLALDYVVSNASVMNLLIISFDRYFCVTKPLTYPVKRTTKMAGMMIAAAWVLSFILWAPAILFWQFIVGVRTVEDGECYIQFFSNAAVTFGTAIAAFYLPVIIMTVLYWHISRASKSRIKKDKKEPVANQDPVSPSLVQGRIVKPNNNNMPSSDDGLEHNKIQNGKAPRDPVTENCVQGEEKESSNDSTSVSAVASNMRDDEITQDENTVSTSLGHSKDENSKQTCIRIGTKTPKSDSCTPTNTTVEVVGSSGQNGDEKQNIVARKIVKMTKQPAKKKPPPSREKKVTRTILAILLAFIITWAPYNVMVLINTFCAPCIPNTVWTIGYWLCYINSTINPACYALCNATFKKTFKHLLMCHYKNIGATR
The series can be described thus: Agonist activity at human Muscarinic acetylcholine receptor M2 expressed in HEK cells co-expressing Glosensor construct assessed as decrease in isoproterenol-induced cAMP accumulation at 10 uM to 0.3 nM incubated for 7 mins in presence of isoproterenol by Glosensor cAMP reagent/plate reader based luminescence assay relative to acetylcholine. The format is cell-based. Background: Cyclic AMP is a second messenger, typically raised through Gs and lowered through Gi signalling.

Series [2] addresses T1, Muscarinic acetylcholine receptor M2. The series can be described thus: Agonist activity at human Muscarinic acetylcholine receptor M2 expressed in HEK cells co-expressing Glosensor construct assessed as decrease in isoproterenol-induced cAMP accumulation incubated for 7 mins in presence of isoproterenol by Glosensor cAMP reagent/plate reader based luminescence assay. The format is cell-based.

For series [3], the target named is T2, Muscarinic acetylcholine receptor M4 (Homo sapiens, UniProt P08173).
T2 sequence (P08173 whole entry): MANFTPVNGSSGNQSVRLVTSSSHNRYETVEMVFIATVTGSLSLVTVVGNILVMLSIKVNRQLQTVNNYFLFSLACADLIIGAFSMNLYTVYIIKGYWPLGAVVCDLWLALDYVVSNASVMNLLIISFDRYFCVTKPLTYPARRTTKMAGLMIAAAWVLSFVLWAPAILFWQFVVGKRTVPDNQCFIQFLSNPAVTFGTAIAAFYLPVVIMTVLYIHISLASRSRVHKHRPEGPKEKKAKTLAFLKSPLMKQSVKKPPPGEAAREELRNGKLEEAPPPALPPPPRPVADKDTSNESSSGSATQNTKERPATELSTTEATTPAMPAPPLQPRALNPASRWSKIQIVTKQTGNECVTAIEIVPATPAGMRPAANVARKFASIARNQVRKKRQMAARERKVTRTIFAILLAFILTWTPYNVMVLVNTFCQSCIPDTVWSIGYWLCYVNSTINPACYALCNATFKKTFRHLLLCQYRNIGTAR
The series can be described thus: Agonist activity at human Muscarinic acetylcholine receptor M4 expressed in HEK cells co-expressing Glosensor construct assessed as decrease in isoproterenol-induced cAMP accumulation incubated for 7 mins in presence of isoproterenol by Glosensor cAMP reagent/plate reader based luminescence assay. The format is functional, cell-based.

Series [4] addresses T3, Muscarinic acetylcholine receptor M4 (Homo sapiens) (UniProt P08173).
T3 sequence (whole entry): T2 sequence (P08173 whole entry)
As to the kind of experiment: Agonist activity at human Muscarinic acetylcholine receptor M4 expressed in HEK cells co-expressing Glosensor construct assessed as decrease in isoproterenol-induced cAMP accumulation at 10 uM to 0.3 nM incubated for 2 hrs in presence of isoproterenol and measured after 7 mins by Glosensor cAMP reagent/plate reader based luminescence assay relative to acetylcholine. The format is functional, cell-based.

Series [5] deals with T3, Muscarinic acetylcholine receptor M4 (Homo sapiens). The series can be described thus: Positive allosteric modulatory activity at human Muscarinic acetylcholine receptor M4 expressed in HEK cells co-expressing Glosensor construct assessed as as increase in acteylcholine-induced cAMP accumulation at 10 uM to 0.3 nM incubated for 7 mins in presence of isoproterenol/acetylcholine by Glosensor cAMP reagent/plate reader based luminescence assay relative to acetylcholine. The format is functional, cell-based.

The target of series [6] is T2, Muscarinic acetylcholine receptor M4. The series can be described thus: Positive allosteric modulatory activity at human Muscarinic acetylcholine receptor M4 expressed in HEK cells co-expressing Glosensor construct assessed as as […] in acteylcholine-induced cAMP accumulation incubated for 7 mins in presence of isoproterenol/acetylcholine by Glosensor cAMP reagent/plate reader based luminescence assay. The format is functional, cell-based.

A further series relates to mouse BCRP. As to the kind of experiment: Efflux ratio of permeability across basolateral to apical over apical to basolateral in Doxycycline induced dog MDCK cells transfected with mouse BCRP. The format is ADME, cell-based, Canis lupus familiaris.
A further series deals with MDR1. As to the kind of experiment: Efflux ratio of permeability across basolateral to apical over apical to basolateral in dog MDCK cells transfected with MDR1 gene. The format is ADME, cell-based, Canis lupus familiaris.

Turning to `c1ccc(-n2ccnc2[C@@H]2[C@@H]3CN(C4CC5(CCN(c6cnccn6)C5)C4)C[C@@H]32)cc1` (stereo partly drawn), the Emax (commonly the size of the effect at its maximum, as opposed to the concentration needed) at 7 min in series [1] came out at 79.4%. The EC50 (usually the concentration giving half of the maximal effect) came to 420 nM in series [2] (read-out: EC50) and 7 nM in series [3]. The maximal response (Emax) in series [4] worked out at 83.8%.

On to `COc1cccnc1C1CCN(C2CCCN(c3cccnc3)CC2)CC1` (stereo not drawn), for which the Emax in series [5] was determined as 80%. Moreover, the 50% effective concentration (EC50) in series [6] worked out at 10 µM.

For `CCNC(=O)N1CCCC(N2CCC(c3ncccc3OC)CC2)CC1` (stereo not drawn), the concentration giving a half-maximal response (EC50) in series [3] is above 5990 nM.

As to `COc1cccnc1C1CCN(C2CCCN(c3ccccn3)CC2)CC1` (stereo not drawn), the 50% effective concentration (EC50) in series [6] was above 10 µM.

For the compound `COc1cccnc1C1CCN(C2CCCN(c3cnsn3)CC2)CC1` (stereo not drawn), the EC50 in series [3] was found to be 20 nM. Moreover, the maximum response (Emax) in series [4] was determined as 109%.

With `COc1cccnc1C1CCN(C2CCCN(c3ccncc3)CC2)CC1` (stereo not drawn), the concentration giving a half-maximal response (EC50) in series [6] is above 10 µM; in series [3], above 10000 nM.

Consider `COc1cccnc1C1CCN(C2CCCN(c3ncccn3)CC2)CC1` (stereo not drawn), for which the EC50 in series [6] was above 10 µM.

Regarding `COc1cccnc1C1CCN(C2CCCN(c3cncnc3)CC2)CC1` (stereo not drawn), the EC50 in series [6] is above 10 µM.

On to `COc1cccnc1C1CCN(C2CCCN(c3nccnc3C)CC2)CC1` (stereo not drawn), for which the results for the EC50 in series [6] and in series [3] were 3.41 µM and 3550 nM, respectively. In addition, the Emax in series [4] was found to be 120%.

On to `CCCCCCOc1nsnc1C1=CCCN(C)C1`, for which the maximum response (Emax) in series [5] turned out to be 100%.

Regarding `COc1cccnc1C1CCN(C2CCCN(c3cnccn3)CC2)CC1` (stereo not drawn), the maximal response (Emax) at 7 min in series [1] was determined as 104%. Besides, the Emax in series [5] was determined as 95.9%; in series [4], 96.8%. Further, the figures for the EC50 in series [6], in series [2] (read-out: EC50) and in series [3] were 0.025 µM, 250 nM and 16 nM, respectively.

On to `COc1cccnc1C1CCN(C2CCCN(c3nsnc3OC)CC2)CC1` (stereo not drawn), for which, in series [3], the 50% effective concentration (EC50) was determined as 2510 nM. Also, the Emax in series [4] was determined as 94%.

For the compound `COc1cccnc1C1CCN(C2CCCN(c3nsnc3C)CC2)CC1` (stereo not drawn), in series [3], the EC50 is 470 nM. Further, the Emax in series [4] came to 107%.

Consider `CCOC(=O)N1CCC2(CC(N3C[C@@H]4[C@H](C3)[C@@H]4c3nccn3-c3ccccc3)C2)C1` (stereo partly drawn), for which, in series [1], the maximum response (Emax) at 7 min is 100%. The results for the concentration giving a half-maximal response (EC50) in series [2] (read-out: EC50) and in series [3] were 5160 nM and 3 nM, respectively. In series [4], the maximal response (Emax) was 99%.

Take `COc1cccnc1C1CCN(C2CCCN(c3cccnn3)CC2)CC1` (stereo not drawn): the EC50 in series [6] was above 10 µM.

For `COc1cccnc1C1CCN(C2CCCN(C(=O)OC(C)C)CC2)CC1` (stereo not drawn), in series [3], the EC50 is above 9250 nM.

In the case of `COc1cccnc1C1CCN(C2CCCN(c3nccs3)CC2)CC1` (stereo not drawn), the results for the EC50 in series [6] and in series [3] were above 10 µM and above 10000 nM, respectively.

Consider `COc1cccnc1C1CCN(C2CC3(CCN(c4cnccn4)C3)C2)CC1` (stereo not drawn), for which the Emax at 7 min in series [1] was found to be 100%. For the same compound, the EC50 is above 7350 nM in series [2] (read-out: EC50) and 228 nM in series [3]. For the same compound, the Emax in series [4] was 100%.

Turning to `COc1cccnc1C1CCN(C2CCCN(c3cnc(C)cn3)CC2)CC1` (stereo not drawn), the EC50 in series [3] is above 4160 nM. The maximum response (Emax) in series [4] was determined as 51%.

In the case of `COc1cccnc1C1CCN(C2CCCN(c3nncs3)CC2)CC1` (stereo not drawn), the 50% effective concentration (EC50) in series [6] is above 10 µM; in series [3], above 10000 nM.

For `COc1cccnc1C1CCN(C2CCCN(c3nc(C)cs3)CC2)CC1` (stereo not drawn), the EC50 is above 10 µM in series [6] and above 2740 nM in series [3].

Take `CCOC(=O)N1CCCC(N2CCC(c3ncccc3OC)CC2)CC1` (stereo not drawn): in series [1], the Emax at 7 min is 83%. Further, the concentration giving a half-maximal response (EC50) in series [2] (read-out: EC50) was found to be 2520 nM; in series [3], 11 nM. The Emax in series [4] was 99 to 99.1%.

For `COc1cccnc1C1CCN(C2CCCN(C(=O)OCC(C)C)CC2)CC1` (stereo not drawn), in series [3], the EC50 is above 9930 nM.

Turning to `COc1cccnc1C1CCN(C2CCCN(c3ncns3)CC2)CC1` (stereo not drawn), in series [3], the EC50 was found to be 1100 nM. In addition, the maximal effect (Emax) in series [4] was 101%.

For `O=C1CCCN1CC#CCN1CCCC1` [OXOTREMORINE], the results for the Emax in series [5] and in series [4] were 90.7% and 94.4%, respectively. Besides, the concentration for a half-maximal effect (EC50) in series [6] was determined as 0.009 µM.

Take `CCOC(=O)N1CCC(CN2CCC(c3ncccc3OC)CC2)CC1`: the 50% effective concentration (EC50) entry in series [2] is “Not Active”; in series [3] it was 23 nM. Further, the maximum response (Emax) in series [4] worked out at 82%.

`CCCC(=O)N1CCCC(N2CCC(c3ncccc3OC)CC2)CC1` (stereo not drawn): the EC50 in series [3] was above 8880 nM.

Turning to `CCOC(=O)N1CCC2(CC(N3CCC(c4ncccc4OC)CC3)C2)C1` (stereo not drawn), the figures for the EC50 in series [2] (read-out: EC50) and in series [3] were above 10000 nM and 9 nM, respectively. For the same compound, the maximal response (Emax) in series [4] stood at 90%.

As for `CCNS(=O)(=O)N1CCCC(N2CCC(c3ncccc3OC)CC2)CC1` (stereo not drawn), the 50% effective concentration (EC50) in series [3] is above 10000 nM.

Regarding `COc1cccnc1C1CCN(CC2CCN(c3cnccn3)CC2)CC1`, in series [1], the maximal response (Emax) at 7 min came to 102%. In addition, the efflux ratio (commonly a quotient of directional permeabilities that is used to spot active efflux) with mouse BCRP came out at 1.62; with MDR1, 3.89. The EC50 in series [2] (read-out: EC50) was above 8830 nM; in series [3] it was 296 nM. For the same compound, the Emax in series [4] was determined as 78%.

As to `COc1cccnc1C1CCN(C2CCCN(c3cncc(C)n3)CC2)CC1` (stereo not drawn), the half-maximal effective concentration (EC50) is above 10 µM in series [6] and 9830 nM in series [3]. The Emax in series [4] stood at 100%.
